Data: US20230075765A1, “PYRROLO[2,3-D]PYRIMIDINE DERIVATIVE TARGETING EGFR MUTATION, AS WELL AS THE PREPARATIVE METHOD AND THE USE THEREOF” (WEST CHINA HOSPITAL, SICHUAN UNIVERSITY, priority 2020, published 2023)
Where two headings read alike, the source gives them in different places.

How the values were obtained:
Format in all cases: cell-based, human
HCC827 cells [1] = assay: Inhibition of cell proliferation, CCK8 method; conditions: HCC827 EGFR mutant cells, 48 h, CCK8, read-out: Inhibitory activity (IC50) against HCC827
Procedure: (§1) The stock solution was diluted with the corresponding culture medium to the required concentration just before the experiment.
(§2) HBE cells and BEAS-2B cells are normal lung bronchial epithelial cell lines, and both cells were cultured in DMEM high glucose medium (supplemented with 10% fetal bovine serum and 1% double antibody) to the logarithmic growth phase; H460 cells, A549 cells, H1975 cells and HCC827 cells are lung cancer cell lines, and all of them were cultured in RPMI1640 medium (supplemented with 10% fetal bovine serum and 1% double antibody) to the logarithmic growth phase. Among them, H1975 cells and HCC827 cells are EGFR mutant cells.
(§3) The cells were counted, and then seeded in a 96-well plate at a density of 5000 cells/well, 100 μl for each well. The culture plate was moved into a CO2 incubator and incubated for 24 h at 37° C. and 5% CO2. Compounds at different concentrations were added to each well, 5 replicate wells for each concentration, and the cells were treated with the compounds for 48 hours. CCK8 detection reagent was added to each well according to the operation manual, and then the plate was further incubated for 1 h before terminating the culture. 450 nm wavelength was chosen, and the absorbance value of each well was adjusted on the microplate ELISA analyzer. The result was recorded. […] was taken as the horizontal axis, and absorbance as the vertical axis to plot a curve. The half inhibitory concentration (IC50) was calculated by Bliss method. Each experiment was repeated at least 3 times.
(§4) Normal lung cell lines and different lung cancer cell lines were selected for experiments.

HCC827 cells [2] = assay: Cell cycle, PI staining, flow cytometry; conditions: 18 h (control 33.66)
Procedure: (§5) A variety of different cells in the logarithmic growth phase were inoculated evenly in a 6-well plate at a concentration of 1×10^6 cells/well, 2 ml for each well, and then incubated overnight. Then, different compounds were added, and each compound was set different concentrations. After 18 h, the cells were collected, resuspended in PBS, and centrifuged to remove the supernatant, to which was then added 0.5 ml of pre-cooled 75% absolute ethanol dropwise, followed by vortexing to mix the cells and standing overnight at 4° C. The solution was centrifuged at 1000 rpm/min for 4 min, and the supernatant was discarded. Propidium iodide staining solution was prepared by using 5.6 ml staining buffer, 210 μl propidium iodide staining solution (25×), and 56 μl RNaseA (2.5 mg/ml). 0.4 ml of propidium iodide staining solution was added to each tube to resuspend the cells, and then incubated for 30 min at room temperature in the dark. The cell suspension was gently pipetted to mix, filtered into a flow tube, and stored in the dark at 4° C. The cells were detected on the flow cytometer within 1 h.

H1975 cells [3] = assay: Cell cycle, PI staining, flow cytometry; conditions: 18 h (control 30.25)
Procedure: as §5

HCC827 cells [4] = assay: Apoptosis, Annexin V-FITC/PI double staining, flow cytometry; conditions: 18 h (control 10.8)
Procedure: (§6) Apoptosis was detected by Annexin V-FITC/PI double staining method. A variety of different cells in the logarithmic growth phase were inoculated evenly in a 6-well plate at a concentration of 1×10^6 cells/well, 2 ml for each well, and then incubated overnight. Then, different compounds were added, and each compound was set different concentrations. After 18 h, the cells were collected with 0.25% trypsin without EDTA and washed twice with PBS solution. Then, the cells were stained by the apoptosis detection kit according to the instructions, and analyzed by flow cytometry.
(§7) In the experiment, human lung cancer cells HCC827 cells and H1975 cells were selected as the detection system. The control group was a blank control (DMSO). The test concentrations of the compounds were 0.5 μM and 5 μM. After treatment with the compounds for 18 h, the flow cytometry was used for detection. In the apoptosis result graph, the cells in quadrant E1 are necrotic cells, the cells in quadrant E2 are late apoptotic cells, the cells in quadrant E3 area represent live cells, and the cells in quadrant E4 are early apoptotic cells.

H1975 cells [5] = assay: as above; conditions: 18 h (control 9.2)
Procedure: as §6, §7

BEAS-2B cells = assay: Inhibition of cell proliferation, CCK8 method; conditions: BEAS-2B normal bronchial epithelial cells, 48 h, read-out: Inhibitory activity (IC50) against BEAS-2B
Procedure: (§8) Compounds 1-9 of the present invention were respectively weighed and dissolved in 1 ml of dimethyl sulfoxide (DMSO), to prepare a 10 mM drug solution, which was stored in a refrigerator at −20° C. in the dark after packaging. The stock solution was diluted with the corresponding culture medium to the required concentration just before the experiment.
as §2
as §3, with “When the cells were cultured to 90% of the growth density, the cells were digested with 0.25% trypsin to prepare a single cell suspension. The cells” for “The cells”
(§9) Normal lung cell lines and different lung cancer cell lines were selected for experiments. Amongst, the compound with high anti-cancer activity was screened, whose anti-tumor activity was further studied.

A549 cells = assay: Inhibition of cell proliferation, CCK8 method; conditions: A549 lung adenocarcinoma cells, 48 h, read-out: Inhibitory activity (IC50) against A549
Procedure: as §8, §2
as §3, with “When the cells were cultured to 90% of the growth density, the cells were digested with 0.25% trypsin to prepare a single cell suspension. The cells” for “The cells”
as §9

H460 cells = assay: Inhibition of cell proliferation, CCK8 method; conditions: 48 h, read-out: Inhibitory activity (IC50) against H460
Procedure: as §8, §2
as §3, with “When the cells were cultured to 90% of the growth density, the cells were digested with 0.25% trypsin to prepare a single cell suspension. The cells” for “The cells”
as §9

H1975 cells [6] = assay: Inhibition of cell proliferation, CCK8 method; conditions: H1975 EGFR mutant cells, 48 h, read-out: Inhibitory activity (IC50) against H1975
Procedure: as §1, §2, §3, §4

[7] = system: normal cells and different lung cancer cell lines; assay: Inhibition of cell proliferation, CCK8 method, comparison in words over the whole cell panel; conditions: BEAS-2B, HBE, H460, A549, H1975, HCC827; CCK8, 48 h
Procedure: as §8, §2
as §3, with “When the cells were cultured to 90% of the growth density, the cells were digested with 0.25% trypsin to prepare a single cell suspension. The cells” for “The cells”
as §9

HBE cells = assay: Inhibition of cell proliferation, CCK8 method; conditions: HBE normal bronchial epithelial cells, 48 h, CCK8; read-out: Inhibitory activity (IC50) against HBE
Procedure: as §1, §2, §3, §4

[8] = H460 large cell lung cancer cells

Row | SMILES | IC50 (HCC827 cells [1]; Homo sapiens) | S phase (%) (HCC827 cells [2]; 0.5 μM) | S phase (%) (HCC827 cells [2]; 5 μM) | S phase (%) (H1975 cells [3]; 0.5 μM) | S phase (%) (H1975 cells [3]; 5 μM) | Total apoptosis rate (%) (HCC827 cells [4]; 0.5 μM) | Total apoptosis rate (%) (HCC827 cells [4]; 5 μM) | Total apoptosis rate (%) (H1975 cells [5]; 0.5 μM) | Total apoptosis rate (%) (H1975 cells [5]; 5 μM) | IC50 (BEAS-2B cells; Homo sapiens) | IC50 (A549 cells; Homo sapiens) | IC50 (H460 cells; Homo sapiens, NCI-H460, H460 large cell lung cancer cells) | IC50 (HCC827 cells [1]) | IC50 (H1975 cells [6]) | inhibitory effect on different cell lines (in words) [7] | IC50 (BEAS-2B cells) | IC50 (A549 cells) | IC50 (H460 cells; [8]) | IC50 (HBE cells)
1 | C=CC(=O)Nc1cccc(Oc2nc(Nc3ccc(N4CCN(C)CC4)c(F)c3)nc3[nH]ccc23)c1 [Avitinib, reference compound] | 0.11 µM | 9.09% | 10.83% | 3.74% | 13.19% | 30.3% | 35.4% | 9.5% | 11.7% | 4.11 µM | 2.01 µM | 5.68 µM |  |  |  |  |  |  | 
2 | C=CC(=O)Nc1cccc(Oc2nc(Nc3ccc(N4CCN(C)CC4)c(F)c3)nc3[nH]ccc23)c1 [Compound 1] |  |  |  |  |  |  |  |  |  |  |  |  | 0.1 µM | 2.06 µM | basically the same as that of the positive control | 3.68 µM | 1.92 µM | 6.02 µM | 
3 | C=CC(=O)Nc1cccc(Oc2nc(Nc3ccc(N4CCN(C)CC4)cc3)nc3[nH]ccc23)c1 [Compound 3] |  |  |  |  |  |  |  |  |  |  |  |  | 0.24 µM | 22 µM | lower | 23.8 µM | 9.92 µM | 36 µM | 28.1 µM
